Results on one molecule are retold here after PMC11455950, “Effects of SZV-2649, a new multiple ion channel inhibitor mexiletine analogue” (Scientific Reports, 2024).

Molecules are shown by their SMILES.

In this test the target is T1, GIRK1 (Kir3.1/3.4) potassium channel (Homo sapiens, UniProt P48544+P48549).
T1 construct: host or cells: HEK293
T1 sequence (P48549 1-501): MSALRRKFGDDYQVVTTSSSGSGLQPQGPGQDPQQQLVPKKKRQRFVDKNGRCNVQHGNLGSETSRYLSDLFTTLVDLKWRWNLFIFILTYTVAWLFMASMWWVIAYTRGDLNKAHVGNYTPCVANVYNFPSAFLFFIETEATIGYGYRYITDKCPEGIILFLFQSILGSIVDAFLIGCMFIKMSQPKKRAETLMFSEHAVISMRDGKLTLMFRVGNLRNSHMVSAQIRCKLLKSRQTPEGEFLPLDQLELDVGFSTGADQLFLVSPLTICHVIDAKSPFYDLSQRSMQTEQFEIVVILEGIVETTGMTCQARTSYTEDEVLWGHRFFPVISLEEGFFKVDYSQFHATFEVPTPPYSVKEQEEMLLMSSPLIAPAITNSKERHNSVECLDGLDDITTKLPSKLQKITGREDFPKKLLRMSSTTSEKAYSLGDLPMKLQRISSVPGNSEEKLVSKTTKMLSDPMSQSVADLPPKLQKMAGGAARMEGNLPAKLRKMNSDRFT
T1 sequence (P48544 1-419): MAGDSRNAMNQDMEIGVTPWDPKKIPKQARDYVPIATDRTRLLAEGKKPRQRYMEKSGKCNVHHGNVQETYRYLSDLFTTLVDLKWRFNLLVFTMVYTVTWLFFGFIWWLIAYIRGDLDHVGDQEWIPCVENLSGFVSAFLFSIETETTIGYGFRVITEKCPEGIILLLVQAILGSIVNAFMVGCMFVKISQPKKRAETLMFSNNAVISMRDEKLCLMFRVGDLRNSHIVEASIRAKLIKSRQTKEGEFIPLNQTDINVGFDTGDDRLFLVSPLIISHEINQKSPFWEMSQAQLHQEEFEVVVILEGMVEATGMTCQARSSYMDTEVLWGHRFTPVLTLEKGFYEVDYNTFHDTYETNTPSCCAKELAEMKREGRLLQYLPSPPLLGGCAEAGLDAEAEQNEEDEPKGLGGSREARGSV
Put plainly: Automated planar patch-clamp, GIRK current in HEK cells. In kind it is cell-based. As to conditions: HEK cells (abstract). The text has this: Inhibition of the hERG channel, the pore forming α-subunit of the native IKr cardiac potassium channel, is expected to prolong repolarization both in the atria and in the ventricles. The GIRK channel is the pore forming α-subunit of the acetylcholine-activated potassium channel and plays an important role in atrial electrophysiology. Its inhibition can be expected to decrease the acetylcholine-activated potassium current (IKACh), a current that plays an important role in the pathogenesis of AF. Therefore, the effects of SZV-2649 on the hERG and GIRK ion channels were studied by the planar patch-clamp technique in mammalian HEK cell lines stably expressing these channels.
The currents conducted by the hERG and GIRK channels were measured by using planar patch-clamp technology[,[47],[68] in the whole-cell configuration with a four-channel medium-throughput fully automated patch-clamp platform (Patchliner Quattro, Nanion Technologies GmbH, Munich, Germany) with integrated temperature control. […]
For GIRK current measurements (see Fig. 2.), the internal solution was (in mM): K-gluconate 40, NaCl 20, KF 60, EGTA 20 and HEPES 10 (pH 7.2, KOH) supplemented with 0.9 mM GTP before experiments to induce channel activation. […] The invard currents were calculated from the − 140 mV segment. […]
(In general: In patch-clamp work, channel activity is measured electrically.)

Turning to `CC(N)COc1c(I)cc(C#N)cc1I.Cl` (stereo not shown) [SZV-2649, 4-(2-aminopropoxy)-3,5-diiodobenzonitrile hydrochloride], the IC50 (commonly the midpoint of a concentration-inhibition curve) amounted to 529 nM. That is a sub-micromolar value.
